{
  "source": "paper PMC8469395",
  "about": "(Pharmaceutics, 2021)",
  "key": {"[1]": {"tested_on": "TR-iBRB2 cells", "experiment": "Effect of compounds on [3H]amantadine uptake by TR-iBRB2 cells", "format": "in vitro ADME, rat", "conditions": "for [3H]amantadine uptake, % of Control, TR-iBRB2: [3H]amantadine 1.67 µM, 3 min, 37 °C; for activity at 200 µM / activity at 2500 µM: Rattus norvegicus, 0.05 h, read-out: [3H]amantadine uptake, % of Control, TR-iBRB2", "method": "(§1) In 10% fetal bovine serum (FBS; Merck, Darmstadt, Germany)-containing Dulbecco’s modified Eagle’s medium (DMEM; Nissui Pharmaceutical, Tokyo, Japan) with 20 mM NaHCO3, 0.19 mM benzylpenicillin potassium, and 0.14 mM streptomycin sulfate, TR-iBRB2 cells (passage number 32–60) were cultured according to previous reports. As described previously, RPE-J cells (passage number 79-92) were cultured in DMEM with 4% FBS, 20 mM NaHCO3, and 0.1 mM non-essential amino acid (FUJIFILM Wako Pure Chemical, Osaka, Japan) containing 0.16 mM benzylpenicillin potassium and 0.17 mM streptomycin sulfate. In accordance with established protocols for the uptake study, the cells were seeded at a density of 1.0 × 10^5 cells/well onto a collagen I-coated 24-well plate (BioCoat™ Collagen I Cellware, Corning, Corning, NY, USA) and cultured for 2 days, at 33 °C, under 5% CO2/air. Referring to the previous reports, we started the uptake reaction, and the details of the procedure are included in the Supplemental Materials.\n(§2) Cell/medium ratio = [^3H]compound (dpm) per cell protein (mg)/[^3H]compound (dpm) per medium (µL)(2) […]\n(§3) 7.4) three times at 37°C.\n(§4) and KHCO3, respectively. Cl--free ECF buffer was prepared by replacing equimolar\n(§5) protein assay kit (Bio-Rad, Hercules, CA, USA)."}, "[2]": {"tested_on": "TR-iBRB2 cells", "conditions": "read-out: Km for uptake by TR-iBRB2 cells; cited from earlier work"}, "[3]": {"tested_on": "RPE-J cells", "experiment": "Effect of compounds on [3H]amantadine uptake by RPE-J cells", "format": "in vitro ADME, rat", "conditions": "for [3H]amantadine uptake, % of Control, RPE-J: [3H]amantadine 1.67 µM, 3 min, 37 °C; for activity at 200 µM / activity at 1000 µM / activity at 2500 µM: Rattus norvegicus, 0.05 h, read-out: [3H]amantadine uptake, % of Control, RPE-J", "method": "as §1, §2, §3, §4, §5"}},
  "data": [
    {"smiles": "CC(C)NCC(O)COc1cccc2ccccc12", "note": "(stereo not drawn) [Propranolol]", "values": [
      {"measurement": "reduction of [3H]amantadine uptake by TR-iBRB2 cells", "setting": "[1]; compound 0.2 mM", "result": "more than 58%"},
      {"measurement": "[3H]amantadine uptake, % of Control, TR-iBRB2", "setting": "[1]; compound 0.2 mM", "result": "8.61 ± 0.75 % of Control"},
      {"measurement": "Km", "setting": "[2]", "result": 237, "unit": "µM"},
      {"measurement": "[3H]amantadine uptake, % of Control, RPE-J", "setting": "[3]; compound 0.2 mM", "result": "15.7 ± 5.9 % of Control"}
    ]},
    {"smiles": "Clc1cccc(Cl)c1N=C1NCCN1", "note": "[Clonidine]", "values": [
      {"measurement": "activity at 200 µM", "setting": "[1]", "result": "42.1 ± 12.1", "unit": "%"},
      {"measurement": "reduction of [3H]amantadine uptake by TR-iBRB2 cells", "setting": "[1]; compound 0.2 mM", "result": "more than 58%"},
      {"measurement": "Km", "setting": "[2]", "result": 286, "unit": "µM"},
      {"measurement": "activity at 200 µM", "setting": "[3]", "result": "71.6 ± 4.7", "unit": "%"},
      {"measurement": "activity at 1000 µM", "setting": "[3]", "result": "30.8 ± 4", "unit": "%"}
    ]},
    {"smiles": "CNCCCN1c2ccccc2CCc2ccccc21", "note": "[Desipramine]", "values": [
      {"measurement": "[3H]amantadine uptake, % of Control, TR-iBRB2", "setting": "[1]; compound 0.2 mM", "result": "7.05 ± 0.57 % of Control"},
      {"measurement": "[3H]amantadine uptake, % of Control, RPE-J", "setting": "[3]; compound 0.2 mM", "result": "10.7 ± 5.6 % of Control"}
    ]},
    {"smiles": "CC(C)(C)NC[C@H](O)COc1nsnc1N1CCOCC1", "note": "[Timolol]", "values": [
      {"measurement": "[3H]amantadine uptake, % of Control, TR-iBRB2", "setting": "[1]; compound 0.2 mM", "result": "34.6 ± 10.6 % of Control"},
      {"measurement": "[3H]amantadine uptake, % of Control, RPE-J", "setting": "[3]; compound 0.2 mM", "result": "59.1 ± 5.1 % of Control"}
    ]},
    {"smiles": "CCN1/C(=C/c2ccc3ccccc3[n+]2CC)C=Cc2ccccc21.[I-]", "note": "[Decynium-22]", "values": [
      {"measurement": "[3H]amantadine uptake, % of Control, TR-iBRB2", "setting": "[1]; compound 0.2 mM", "result": "106 ± 31 % of Control"},
      {"measurement": "[3H]amantadine uptake, % of Control, RPE-J", "setting": "[3]; compound 0.2 mM", "result": "86.7 ± 41.9 % of Control"},
      {"measurement": "[3H]amantadine uptake, % of Control, RPE-J", "setting": "[3]; compound 0.5 mM", "result": "136 ± 8 % of Control"}
    ]},
    {"smiles": "C[n+]1ccc(-c2ccccc2)cc1", "note": "[MPP^+, 1-methyl-4-phenylpyridinium]", "values": [
      {"measurement": "[3H]amantadine uptake, % of Control, TR-iBRB2", "setting": "[1]; compound 0.2 mM", "result": "106 ± 31 % of Control"},
      {"measurement": "[3H]amantadine uptake, % of Control, RPE-J", "setting": "[3]; compound 0.2 mM", "result": "75.5 ± 5.0 % of Control"},
      {"measurement": "[3H]amantadine uptake, % of Control, RPE-J", "setting": "[3]; compound 1.0 mM", "result": "91.9 ± 5.6 % of Control"}
    ]},
    {"smiles": "N[C@@H](CC(=O)O)C(=O)O", "note": "[L-Aspartic acid]", "values": [
      {"measurement": "activity at 2500 µM", "setting": "[1]", "result": "101 ± 23", "unit": "%"},
      {"measurement": "activity at 2500 µM", "setting": "[3]", "result": "79.5 ± 12.7", "unit": "%"}
    ]},
    {"smiles": "CC(C)C[C@H](N)C(=O)O", "note": "[L-Leucine]", "values": [
      {"measurement": "[3H]amantadine uptake, % of Control, TR-iBRB2", "setting": "[1]; compound 2.5 mM", "result": "112 ± 17 % of Control"},
      {"measurement": "[3H]amantadine uptake, % of Control, RPE-J", "setting": "[3]; compound 2.5 mM", "result": "113 ± 16 % of Control"}
    ]},
    {"smiles": "CC(=O)Nc1nnc(S(N)(=O)=O)s1", "note": "[Acetazolamide]", "values": [
      {"measurement": "[3H]amantadine uptake, % of Control, TR-iBRB2", "setting": "[1]; compound 0.2 mM", "result": "90.9 ± 3.8 % of Control"}
    ]},
    {"smiles": "N=C(N)NCCC[C@H](N)C(=O)O", "note": "[L-Arginine]", "values": [
      {"measurement": "activity at 2500 µM", "setting": "[1]", "result": "127 ± 15", "unit": "%"},
      {"measurement": "activity at 2500 µM", "setting": "[3]", "result": "150 ± 38", "unit": "%"}
    ]},
    {"smiles": "C=C[C@H]1C[N@@]2CC[C@H]1C[C@@H]2[C@@H](O)c1ccnc2ccc(OC)cc12", "note": "[Quinidine]", "values": [
      {"measurement": "[3H]amantadine uptake, % of Control, TR-iBRB2", "setting": "[1]; compound 0.2 mM", "result": "13.7 ± 1.8 % of Control"},
      {"measurement": "[3H]amantadine uptake, % of Control, RPE-J", "setting": "[3]; compound 0.2 mM", "result": "34.1 ± 3.0 % of Control"}
    ]},
    {"smiles": "CC12CC3CC(C)(C1)CC(N)(C3)C2", "note": "[Memantine]", "values": [
      {"measurement": "activity at 200 µM", "setting": "[1]", "result": "16.7 ± 2.2", "unit": "%"},
      {"measurement": "activity at 200 µM", "setting": "[3]", "result": "123 ± 38", "unit": "%"},
      {"measurement": "activity at 1000 µM", "setting": "[3]", "result": "27.1 ± 2.6", "unit": "%"}
    ]},
    {"smiles": "CCc1nc(N)nc(N)c1-c1ccc(Cl)cc1", "note": "[Pyrimethamine]", "values": [
      {"measurement": "activity at 200 µM", "setting": "[1]", "result": "44.3 ± 8.8", "unit": "%"},
      {"measurement": "activity at 200 µM", "setting": "[3]", "result": "88.9 ± 3.3", "unit": "%"}
    ]}
  ]
}
